Holding throughout (format): cell-based
In one assay the test system is Lactobacilli. Nature of the assay: growth of Lactobacilli in supplemented milk (general trials). The following applies: addition of ribonucleosides to milk. As to the method:
In order to find the identity of other stimulatory substances, several trials were performed with ribonucleotide precursors, that is free bases such as adenine, guanine, cytosine, thymine, and uracil, ribonucleosides such as adenosine, cytidine, uridine, and guanosine, and 2′-deoxyribonucleosides such as deoxyadenosine, deoxyguanosine, deoxycytidine, deoxyuridine and thymidine. These compounds were supplemented to milk as concentrated alkaline or neutral solutions at different concentrations.
This finding confirmed the hypothesis that the low level of purines in milk negatively affects bacterial growth therein. […] Without being bound by theory, it is believed that the high content of orotic acid allows the synthesis of pyrimidine bases. No significant differences in pH-values were detected by the addition of free bases and deoxyribonucleosides between aerobic and anaerobic conditions. […] The positive effect was observed particularly with the addition of ribonucleosides in anaerobic environment.
(§1) The growth results were estimated by cell counts and a final pH measurement performed after 24 hours incubation at 37 ° C. Rapid Analysis of Bacterial Impedance Technique (RABIT) (Don Whitley Scientific, West Yorkshire, UK) was used to perform trials with skim and whole UHT milk for 24 hours at 37° C.

Another assay deals with L. johnsonii ATCC 33200. Nature of the assay: omission technique with RABIT in skim milk. The conditions noted are these: skim milk with four ribonucleosides and ferrous sulphate. Here is the method: as §1
In order to determine those amino acids having an essential role for L. johnsonii growth in milk, the “omission technique” (Reiter, B. & Oram, J. D, I. Dairy Res, 29 (1962), 63-77) was applied by culturing the strain ATCC 33200^T in skim milk, adding four ribonucleosides and ferrous sulphate (positive control), supplemented with the mixture of 19 amino acids described above deprived of one particular component at each given time.

The test system of the next assay is L. johnsonii. As to the kind of experiment: growth assay in milk, L. johnsonii (strain not specified). Here is the method:
Skim milk (Difco) 10% w/v in sterile water and whole fat UHT milk (Parmalat, Italy) were used to perform the growth assays. The milk tubes were 1% inoculated from an overnight MRS culture washed twice and finally re-suspended with the same amount of sterile distilled water in order to avoid nutrient transfer via the medium.
Milk tubes were incubated aerobically in a thermostat (Sorvall Heraeus) at 37° C. for 24 hours, or anaerobically in an anaerobic incubator (Model 1024, Forma Scientific, USA) at 37° C. for 24 hours.
The chemicals supplemented to the milk were added as concentrated solutions prepared according to standard methods, i.e., the Merck Index instructions. The final pH of milk was adjusted to 6.8 after supplementation using an aqueous 4N sodium hydroxide solution. The initial pH of the 10% skim milk solution and whole fat UHT milk was 6.8 and 6.7, respectively.
as §1
A final pH of 4.1 was measured after amino acids supplementation, but the cell count was still not satisfactory. The cell count when a 10% skim milk with 19 amino acids added increased from 1.0×10^7 CFU/ml to 40×10^7 CFU/ml, which is a factor of 40 increase but is less than the factor of 300 increase observed with 10% skim milk and yeast extract.

Take `Nc1ncnc2c1ncn2[C@@H]1O[C@H](CO)[C@@H](O)[C@H]1O` [adenosine]: in the assay on Lactobacilli, the “improvement of growth conditions in milk” value was “strongest effect”.
As to `C[C@H](N)C(=O)O` [alanine], the “effect of amino acid on growth (RABIT, omission technique)” value (shortened to “effect of amino acid on growth”) with L. johnsonii ATCC 33200 is “excellent results”.
Take `N[C@@H](CS)C(=O)O` [cysteine]: in the assay with L. johnsonii (aerobic conditions), the “pH in the presence of cysteine” value amounted to 3.9. The “pH in absence of cysteine” value in the assay with L. johnsonii (anaerobic conditions) stood at 4.3. For the same compound, the “effect of amino acid on growth” value in the assay with L. johnsonii ATCC 33200 is reported as “excellent results”.
Turning to `Nc1nc2c(ncn2[C@@H]2O[C@H](CO)[C@@H](O)[C@H]2O)c(=O)[nH]1` [guanosine], the “improvement of growth conditions in milk” value in the assay on Lactobacilli is given as “strongest effect”.
Take `CC[C@H](C)[C@H](N)C(=O)O` [isoleucine]: in the assay on L. johnsonii ATCC 33200, the “effect of amino acid on growth” value is “excellent results”.
For the compound `N[C@@H](CO)C(=O)O` [serine], the “effect of amino acid on growth” value in the assay on L. johnsonii ATCC 33200 is recorded as “excellent results”.
For the compound `O=C(O)CS` [thioglycollic acid], the cell counts entry with L. johnsonii (aerobic conditions, final concentration 0.5% v/v, replacing cysteine) was “more than 100×10^7 CFU/ml”.

The values are drawn from patent publication US6521443B1, “Growth medium for lactobacilli containing amino acids, nucleosides and iron” (Nestec S.A., priority 1999, dated 2003).
